According to PubChem BioAssay (NCI):
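Compound exposure: 48 hours, 5 concentrations, 96-well plates. The concentration for 50% growth inhibition is given as GI50. TGI is the concentration that stops growth completely.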

How the values were obtained:
Experiment in all cases: growth of human tumour cells (NCI), 48 h
HCC-2998 colon = system: HCC-2998 colon
UACC-257 melanoma = system: UACC-257 melanoma
COLO 205 colon = system: COLO 205 colon
SK-MEL-2 melanoma = system: SK-MEL-2 melanoma
SK-OV-3 ovarian = system: SK-OV-3 ovarian
HCT-116 colon = system: HCT-116 colon
HT29 colon = system: HT29 colon
SW-620 colon = system: SW-620 colon
TK-10 renal = system: TK-10 renal
DU-145 prostate = system: DU-145 prostate

Compound	TGI (HCC-2998 colon)	TGI (UACC-257 melanoma)	TGI (COLO 205 colon)	TGI (SK-MEL-2 melanoma)	TGI (SK-OV-3 ovarian)	TGI (HCT-116 colon)	TGI (HT29 colon)	TGI (SW-620 colon)	TGI (TK-10 renal)	GI50 (HCC-2998 colon)	GI50 (UACC-257 melanoma)	GI50 (DU-145 prostate)	TGI (DU-145 prostate)	GI50 (COLO 205 colon)	GI50 (SK-OV-3 ovarian)	GI50 (HCT-116 colon)	GI50 (HT29 colon)	GI50 (SW-620 colon)	GI50 (TK-10 renal)	GI50 (SK-MEL-2 melanoma)
Cn1c(=O)c2ccc(-c3ccc(Br)cc3)nc2n(C)c1=O	> 100 µM	> 100 µM	> 100 µM	> 100 µM	> 100 µM	> 100 µM	> 100 µM	> 100 µM	> 100 µM	–	–	–	–	–	–	–	–	–	–	–
CCCCCCCCCCCCCCCC(=O)N[C@H](/C=C/[C@H](O)CCCCCCCCCCCCC)CO	> 100 µM	> 100 µM	> 100 µM	–	> 100 µM	> 100 µM	> 100 µM	> 100 µM	> 100 µM	> 100 µM	> 100 µM	> 100 µM	> 100 µM	> 100 µM	> 100 µM	> 100 µM	> 100 µM	> 100 µM	> 100 µM	–
NC(=O)c1ncn(CCN2CCN(C(=O)NCCCCCCNC(=O)N3CCN(CCn4cnc(C(N)=O)c4N)CC3)CC2)c1N	> 100 µM	> 100 µM	> 100 µM	> 100 µM	> 100 µM	> 100 µM	> 100 µM	> 100 µM	> 100 µM	–	–	–	–	–	–	–	–	–	–	–
CSCC[C@H](NC(=O)[C@H](CC(C)C)NC(=O)[C@@H](Cc1ccccc1)NC(=O)CNC(=O)[C@@H](NC(=O)[C@H](C)NC(=O)[C@H](Cc1c[nH]c2ccccc12)NC(=O)[C@H](CCC(N)=O)NC(=O)[C@H](N)CC(N)=O)C(C)C)C(N)=O	> 12.5 µM	> 12.5 µM	> 12.5 µM	–	> 12.5 µM	> 12.5 µM	> 12.5 µM	> 12.5 µM	> 12.5 µM	–	–	–	> 12.5 µM	–	–	–	–	–	–	–
COC(=O)N/N=C(\C(=O)Nc1cccc([N+](=O)[O-])c1)c1nc2ccc([N+](=O)[O-])cc2[nH]c1=O	> 100 µM	> 100 µM	> 100 µM	–	> 100 µM	> 100 µM	> 100 µM	> 100 µM	> 100 µM	–	–	–	–	–	–	–	–	–	–	–
Cc1ccc(NC(=O)CC/C(CC(=O)C(C)(C)C)=N/NC(=O)C[N+](C)(C)C)cc1C	> 100 µM	> 100 µM	> 100 µM	> 100 µM	> 100 µM	> 100 µM	> 100 µM	> 100 µM	> 100 µM	–	–	–	–	–	–	–	–	–	–	–
CSc1nc2c(nc(N)n2C2OC(COC(C)=O)C(OC(C)=O)C(OC(C)=O)C2OC(C)=O)c(=O)n1C (stereo not given)	> 100 µM	> 100 µM	> 100 µM	> 100 µM	> 100 µM	> 100 µM	> 100 µM	> 100 µM	> 100 µM	–	–	–	–	–	–	–	–	–	–	–
NCCCn1c2c(c3ccc([N+](=O)[O-])cc3c1=O)C(=O)c1cc(-c3ccccc3)ccc1-2	1.27 µM	3.46 µM	–	1.27 µM	–	0.315 µM	0.368 µM	0.336 µM	–	0.31 µM	1.85 µM	0.491 µM	1.02 µM	–	–	0.172 µM	0.19 µM	0.182 µM	–	0.438 µM
CC(=O)[CH-]C(=O)c1ccccc1.CC(=O)[CH-]C(=O)c1ccccc1.CC1(C)OCC(C2OC3OC(C)(C)OC3C2[O-])O1.CC1(C)OCC(C2OC3OC(C)(C)OC3C2[O-])O1.[Ti+4] (stereo not given)	–	–	–	25.5 µM	50.3 µM	32.1 µM	40.6 µM	29.7 µM	> 100 µM	–	–	–	–	–	14.9 µM	14.4 µM	16.3 µM	10.7 µM	34.1 µM	7.49 µM
COC(=O)C1=CC2CC1C(S(=O)(=O)c1ccccc1)C2S(=O)(=O)c1ccccc1 (stereo not given)	34.4 µM	32.7 µM	22 µM	–	> 100 µM	28.7 µM	28.9 µM	21 µM	24.7 µM	–	–	–	–	–	–	–	–	–	–	–
CCOc1ccc2c(C)cc(=O)oc2c1	> 100 µM	> 100 µM	> 100 µM	> 100 µM	–	> 100 µM	> 100 µM	> 100 µM	–	–	–	–	> 100 µM	–	–	–	–	–	–	–
CC(=O)[CH-]C(=O)c1ccccc1.CC(=O)[CH-]C(=O)c1ccccc1.CC[C@H](/C=C/C(C)[C@H]1CCC2[C@@H]3CC=C4C[C@@H]([O-])CC[C@]4(C)C3CC[C@@]21C)C(C)C.CC[O-].[Ti+4] (stereo not given in full)	> 100 µM	> 100 µM	> 100 µM	> 100 µM	> 100 µM	> 100 µM	> 100 µM	> 100 µM	> 100 µM	> 100 µM	> 100 µM	–	–	> 100 µM	> 100 µM	> 100 µM	> 100 µM	> 100 µM	> 100 µM	> 100 µM
O=S(=O)(c1ccc(Br)cc1)N1CCN(S(=O)(=O)c2ccc(Br)cc2)CC1	–	> 100 µM	> 100 µM	> 100 µM	> 100 µM	> 100 µM	> 100 µM	> 100 µM	> 100 µM	–	–	–	> 100 µM	–	–	–	–	–	–	–
O=C(CC1(O)C(=O)Nc2ccccc21)c1ccc(F)cc1 (stereo not given)	–	> 100 µM	> 100 µM	> 100 µM	> 100 µM	> 100 µM	> 100 µM	> 100 µM	> 100 µM	–	–	–	–	–	–	–	–	–	–	–
O=c1c2cccc(F)c2sc2c(N3CCNCC3)nc3ccccc3c12	3.13 µM	3.94 µM	3.17 µM	3.46 µM	3.41 µM	2.16 µM	2.59 µM	2.28 µM	–	1.48 µM	1.93 µM	1.4 µM	2.76 µM	1.43 µM	1.64 µM	0.931 µM	1.13 µM	0.974 µM	–	1.76 µM
C/C(=N\NS(=O)(=O)c1ccc(C)cc1)c1cc2ccccc2n1C	> 100 µM	> 100 µM	> 100 µM	> 100 µM	–	> 100 µM	> 100 µM	> 100 µM	–	–	–	–	–	–	–	–	–	–	–	–
CN(C)CCC(CCN(C)C)=NOC(=O)c1ccccc1	> 100 µM	> 100 µM	> 100 µM	> 100 µM	> 100 µM	> 100 µM	> 100 µM	> 100 µM	> 100 µM	–	–	–	–	–	–	–	–	–	–	–
O=C(O)C1C2C=CC(C2)C1C(=O)O (stereo not given)	> 100 µM	> 100 µM	> 100 µM	> 100 µM	> 100 µM	> 100 µM	> 100 µM	> 100 µM	–	> 100 µM	> 100 µM	> 100 µM	> 100 µM	> 100 µM	> 100 µM	> 100 µM	> 100 µM	> 100 µM	–	> 100 µM
